Here are results for 29 molecules from patent publication US9914730B2, “Azaquinazoline inhibitors of Atypical protein Kinase C” (Ignyta, Inc., priority 2012, dated 2018).

A value given as a limit tells only on which side of the number the result lay.

For this experiment, the target named is T1, full-length human PKCι (Homo sapiens, UniProt P41743).
T1 construct: Recombinant, full-length human PKCι expressed in Sf21 insect cells is also commercially available; purchased; host or cells: Sf21 insect cells
T1 sequence (P41743 1-596): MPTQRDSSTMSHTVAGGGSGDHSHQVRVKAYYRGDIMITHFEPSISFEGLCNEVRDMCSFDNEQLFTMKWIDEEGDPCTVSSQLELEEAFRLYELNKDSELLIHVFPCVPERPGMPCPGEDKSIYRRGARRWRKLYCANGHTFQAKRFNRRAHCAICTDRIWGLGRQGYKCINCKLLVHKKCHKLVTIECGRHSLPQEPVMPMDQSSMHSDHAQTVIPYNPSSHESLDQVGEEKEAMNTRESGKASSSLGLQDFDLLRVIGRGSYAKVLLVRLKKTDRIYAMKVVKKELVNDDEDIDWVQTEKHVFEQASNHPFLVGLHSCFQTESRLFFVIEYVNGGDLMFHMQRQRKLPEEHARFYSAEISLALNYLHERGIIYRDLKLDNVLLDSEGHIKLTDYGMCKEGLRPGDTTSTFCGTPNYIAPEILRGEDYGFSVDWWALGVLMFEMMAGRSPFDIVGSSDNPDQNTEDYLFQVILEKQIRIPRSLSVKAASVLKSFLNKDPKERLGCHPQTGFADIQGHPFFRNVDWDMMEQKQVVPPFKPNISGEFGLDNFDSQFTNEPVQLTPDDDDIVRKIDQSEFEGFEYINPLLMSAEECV
The experiment can be described thus: PKCι IC50 IMAP assay, full-length PKCι at 150 μM ATP. Type of experiment: biochemical. The settings on record: read-out: IC50 in IMAP assay against full length PKCi at 150 μM ATP. The procedure, abridged: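 IC50 from IMAP FP (ex 485/em 530 nm) after 60 min room-temperature reaction in pH 7.5 tris buffer with 9 mM MgCl2 and 0.9 mM DTT. Enzyme: full-length Sf21-expressed PKCι (~15 pM); ATP 150 μM, five times KM^APP; FAM-labelled peptide 100 nM; DMSO 4%.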

Usually IC50 stands for the midpoint of a concentration-inhibition curve.

Turning to `c1cc(-c2nc(N3CCNCC3)c3c(C4CC4)cncc3n2)c2c(n1)NC1(CCCCC1)C2` [Example 1252, 4-(5-cyclopropyl-4-piperazin-1-yl-pyrido[3,4-d]pyrimidin-2-yl)spiro[1,3-dihydropyrrolo[2,3-b]pyridine-2,1′-cyclohexane]], the concentration for half-maximal inhibition (IC50) was under 100 nM.
As for `FC[C@H]1CN(c2nc(-c3ccnc(Nc4cccnc4F)c3)nc3cncc(C4CC4)c23)CCN1` [Example 531, {4-[5-Cyclopropyl-4-((R)-3-fluoromethyl-piperazin-1-yl)-pyrido[3,4-d]-pyrimidin-2-yl]-pyridin-2-yl}-(2-fluoro-pyridin-3-yl)-amine], the figure is under 100 nM.
Consider `CN1CCN(c2cccc(Nc3cc(-c4nc(N5CCC5)c5c(C6CC6)cncc5n4)ccn3)c2)CC1` [Example 761, [4-(4-Azetidin-1-yl-5-cyclopropyl-pyrido[3,4-d]pyrimidin-2-yl)-pyridin-2-yl]-[3-(4-methyl-piperazin-1-yl)-phenyl]-amine], for which the IC50 was 100 to 1000 nM.
In the case of `COc1cncc2nc(-c3ccnc(Nc4ccc(N(C)C)cc4)c3)nc(N[C@@H]3CCNC3)c12` [Example 226, N-{4-[5-Methoxy-4-((R)-pyrrolidin-3-ylamino)-pyrido[3,4-d]pyrimidin-2-yl]-pyridin-2-yl}-N′,N′-dimethyl-benzene-1,4-diamine], the IC50 is under 100 nM.
As to `C[C@H]1CN(c2nc(-c3ccnc(Nc4ccccc4)c3)nc3cncc(C4CC4)c23)CCN1` [Example 569, {4-[5-Cyclopropyl-4-((S)-3-methyl-piperazin-1-yl)-pyrido[3,4-d]pyrimidin-2-yl]-pyridin-2-yl}-phenyl-amine], the IC50 is under 100 nM.
As for `Cn1c(Nc2cc(-c3nc(N4CCNCC4)c4c(C5CC5)cncc4n3)ccn2)nc2ccccc21` [Example 2046, [4-(5-Cyclopropyl-4-piperazin-1-yl-pyrido[3,4-d]pyrimidin-2-yl)-pyridin-2-yl]-(1-methyl-1H-benzoimidazol-2-yl)-amine], the figure is under 100 nM; as for `c1cc(-c2nc(N3CCNCC3)c3c(C4CCC4)cncc3n2)c2cc[nH]c2n1` [Example 2082, 5-Cyclobutyl-4-piperazin-1-yl-2-(1H-pyrrolo[2,3-b]pyridin-4-yl)-pyrido[3,4-d]pyrimidine], under 100 nM.
As to `CN(C)c1ncc(Cl)c2c(N3CCNCC3)nc(-c3ccncc3)nc12` [Example 142, 5-chloro-N,N-dimethyl-4-(piperazin-1-yl)-2-(pyridin-4-yl)pyrido[3,4-d]pyrimidin-8-amine], the IC50 lay within 1000 to 10000 nM.
Take `c1cc(-c2nc(N[C@@H]3CCNC3)c3ccncc3n2)ccn1` [Example 7, (3R)-N-[2-(pyridin-4-yl)pyrido[3,4-d]-pyrimidin-4-yl]-pyrrolidin-3-amine]: the concentration for half-maximal inhibition (IC50) is under 100 nM.
Turning to `Fc1cccc(F)c1Nc1cc(-c2nc(NC3CNC3)c3c(C4CC4)cncc3n2)ccn1` [Example 2026, Azetidin-3-yl-{5-cyclopropyl-2-[2-(2,6-difluoro-phenylamino)-pyridin-4-yl]-pyrido[3,4-d]pyrimidin-4-yl}-amine], the IC50 is under 100 nM.
On to `c1cc(C2CC2)c2nc(Nc3cc(-c4nc(N5CCNCC5)c5c(C6CC6)cncc5n4)ccn3)nn2c1` [Example 846, [4-(5-Cyclopropyl-4-piperazin-1-yl-pyrido[3,4-d]pyrimidin-2-yl)-pyridin-2-yl]-(8-cyclopropyl-[1,2,4]triazolo[1,5-a]pyridin-2-yl)-amine], for which the half-inhibitory concentration (IC50) is under 100 nM.
Regarding `CNc1nc(-c2ccnc(Nc3cccc(N4CCNCC4)c3)c2)nc2cncc(OC)c12` [Example 500, {5-Methoxy-2-[2-(3-piperazin-1-yl-phenylamino)-pyridin-4-yl]-pyrido[3,4-d]pyrimidin-4-yl}-methyl-amine], the IC50 was 100 to 1000 nM.
Take `FC(F)(F)c1cc2c(-c3nc(N4CCNCC4)c4c(Br)cncc4n3)ccnc2[nH]1` [Example 2117, 5-Bromo-4-piperazin-1-yl-2-(2-trifluoromethyl-1H-pyrrolo[2,3-b]pyridin-4-yl)-pyrido[3,4-d]pyrimidine]: the IC50 is under 100 nM.
For `COc1cc(Nc2cc(-c3nc(N4CCNCC4)c4c(C5CC5)cncc4n3)ccn2)ccc1C1CC1` [Example 637, (4-Cyclopropyl-3-methoxy-phenyl)-[4-(5-cyclopropyl-4-piperazin-1-yl-pyrido[3,4-d]pyrimidin-2-yl)-pyridin-2-yl]-amine], the concentration for half-maximal inhibition (IC50) is under 100 nM.
As for `COc1cncc2nc(-c3ccnc(Nc4ccccc4)c3)nc(N3CCC(O)CC3)c12` [Example 427, 1-[5-Methoxy-2-(2-phenylamino-pyridin-4-yl)-pyrido[3,4-d]pyrimidin-4-yl]-piperidin-4-ol], the figure is 1000 to 10000 nM; as for `Clc1cccc(Nc2cc(-c3nc(N4CCNCC4)c4c(C5CC5)cncc4n3)ccn2)n1` [Example 514, (6-Chloro-pyridin-2-yl)-[4-(5-cyclopropyl-4-piperazin-1-yl-pyrido[3,4-d]pyrimidin-2-yl)-pyridin-2-yl]-amine], under 100 nM.
Regarding `FC(F)(F)COc1ccc(Nc2cc(-c3nc(N4CCNCC4)c4c(C5CC5)cncc4n3)ccn2)cc1` [Example 2150, [4-(5-Cyclopropyl-4-piperazin-1-yl-pyrido[3,4-d]pyrimidin-2-yl)-pyridin-2-yl]-[4-(2,2,2-trifluoro-ethoxy)-phenyl]-amine], the IC50 was under 100 nM.
Regarding `COc1cncc2nc(-c3ccnc(Nc4ncco4)c3)nc(N3CCNCC3)c12` [Example 220, [4-(5-Methoxy-4-piperazin-1-yl-pyrido[3,4-d]pyrimidin-2-yl)-pyridin-2-yl]-oxazol-2-yl-amine], the concentration for half-maximal inhibition (IC50) was under 100 nM.
Regarding `Fc1ccc(Nc2cc(-c3nc(N4CCNCC4)c4c(C5CC5)cncc4n3)ccn2)cc1` [Example 594, [4-(5-Cyclopropyl-4-piperazin-1-yl-pyrido[3,4-d]pyrimidin-2-yl)-pyridin-2-yl]-(4-fluoro-phenyl)-amine], the IC50 is under 100 nM.
In the case of `C[C@H]1CN(c2nc(-c3ccnc(NC4CCN(CC(F)(F)F)CC4)c3)nc3cncc(C4CC4)c23)CCN1` [Example 2049, {4-[5-Cyclopropyl-4-((S)-3-methyl-piperazin-1-yl)-pyrido[3,4-d]pyrimidin-2-yl]-pyridin-2-yl}-[1-(2,2,2-trifluoro-ethyl)-piperidin-4-yl]-amine], the IC50 is under 100 nM.
Take `FC(F)(F)C1CN(c2nc(-c3ccnc(NC4CC4)c3)nc3cncc(C4CC4)c23)CCN1` (centres unmarked) [Example 508, Cyclopropyl-{4-[5-cyclopropyl-4-(3-trifluoromethyl-piperazin-1-yl)-pyrido[3,4-d]pyrimidin-2-yl]-pyridin-2-yl}-amine]: the IC50 was under 100 nM.
As for `Nc1cc(-c2nc(N3CCNCC3)c3c(C4CC4)cncc3n2)ccn1` [Example 582, 4-(5-Cyclopropyl-4-piperazin-1-yl-pyrido[3,4-d]pyrimidin-2-yl)-pyridin-2-ylamine], the figure is under 100 nM.
Consider `c1ccc(Nc2cc(-c3nc(N4CCNC5CC54)c4c(C5CC5)cncc4n3)ccn2)cc1` (centres unmarked) [Example 537, {4-[5-Cyclopropyl-4-(2,5-diaza-bicyclo-[4.1.0]hept-2-yl)-pyrido[3,4-d]-pyrimidin-2-yl]-pyridin-2-yl}-phenyl-amine], for which the IC50 is under 100 nM.
Regarding `N[C@H](CNc1nc(-c2ccncc2)nc2c(Cl)nccc12)Cc1ccccc1` [Example 11, N-[(2S)-2-amino-3-phenylpropyl]-8-chloro-2-(pyridin-4-yl)pyrido[3,4-d]-pyrimidin-4-amine], the IC50 is under 100 nM.
Regarding `Clc1ccccc1-c1cc2c(-c3nc(N4CCNCC4)c4c(C5CC5)cncc4n3)ccnc2[nH]1` [Example 2202, 2-[2-(2-Chloro-phenyl)-1H-pyrrolo[2,3-b]pyridin-4-yl]-5-cyclopropyl-4-piperazin-1-yl-pyrido[3,4-d]pyrimidine], the IC50 is under 100 nM.
Take `OC[C@H](O)CN1CCN(c2nc(-c3ccnc(Nc4ccccc4)c3)nc3cncc(C4CC4)c23)CC1` [Example 608, (R)-3-{4-[5-Cyclopropyl-2-(2-phenylamino-pyridin-4-yl)-pyrido[3,4-d]pyrimidin-4-yl]-piperazin-1-yl}-propane-1,2-diol]: the IC50 is 100 to 1000 nM.
Regarding `Fc1ncc(C2CC2)c2c(N3CCNCC3)nc(-c3ccnc4[nH]c(C(F)(F)F)cc34)nc12` [Example 2102, 5-Cyclopropyl-8-fluoro-4-piperazin-1-yl-2-(2-trifluoromethyl-1H-pyrrolo[2,3-b]pyridin-4-yl)-pyrido[3,4-d]pyrimidine], the IC50 is under 100 nM.
On to `CNc1nc(-c2ccnc(Nc3cccc(C4CCNCC4)c3)c2)nc2cncc(OC)c12` [Example 502, {5-Methoxy-2-[2-(3-piperidin-4-yl-phenylamino)-pyridin-4-yl]-pyrido[3,4-d]pyrimidin-4-yl}-methyl-amine], for which the IC50 fell in the range of 1000 to 10000 nM.
Next, `[2H]C1([2H])NC([2H])([2H])C([2H])([2H])N(c2nc(-c3ccnc(Nc4ccccc4)c3)nc3cncc(C4CC4)c23)C1([2H])[2H]` [Example 636, {4-[5-Cyclopropyl-4-(2,2,3,3,5,5,6,6-octadeuterio-piperazin-1-yl)-pyrido[3,4-d]pyrimidin-2-yl]-pyridin-2-yl}-phenyl-amine]: under 100 nM.
